Where a name gives a salt, the structure may show the parent alone. Read-outs that look alike come from different tables or passages of the source.
Experiments:
Type in all cases: physicochemical
[1] = Kinetic solubility test in water and bio-relevant media (SGF, FaSSIF, FeSSIF); settings: for Purity (%), area percentage of API: for reference only (suspensions); for FC: form change: residual solids by XRPD; for pH: supernatant
Description: (§1) Weigh 100 mg of sodium chloride and 50 mg of Triton X-100 into a 50-mL volumetric flask. Add appropriate volume of purified water and sonicate until all solids are completely dissolved. Add about 68 μL of 12 M HCl and sufficient purified water closely to the target volume and adjust to pH 1.8. Dilute to volume with purified water, mix well and check the pH with a pH meter.
as §1, with “170” for “100”, “phosphate monobasic, 21” for “chloride and 50”, “sodium hydroxide and 310 mg of sodium chloride, 110 mg of SIF powder” for “Triton X-100”, “Add” for “Add about 68 μL of 12 M HCl and”, “6.5.” for “1.8.”
Weigh 0.41 mL of glacial acetic acid, 202 mg of sodium hydroxide and 594 mg of sodium chloride, 560 mg of SIF powder into a 50-mL volumetric flask. Add appropriate volume of purified water to dissolve the solids. Then add sufficient purified water closely to the target volume and adjust to pH 5.0. Dilute to volume with purified water, mix well and check the pH with a pH meter.
Kinetic solubility was evaluated in water and three bio-relevant media (SGF, FaSSIF and FeSSIF) for 1/4/24 hours. 3-4 mg of solids were suspended in 3 mL each medium (solid loading: 1 mg/mL, calculated using freeform) to get a suspension, followed by rolling (25 rpm) at 37° C. for 1/4/24 hours. At each time point, ˜1.0 mL of suspension was sampled out for centrifugation (12000 rpm, 2 min) and filtration through 0.45 μm PTFE membrane to obtain supernatant for HPLC and pH tests, the residual solids were analyzed by XRPD.
Kinetic solubility was evaluated for 1:1 Compound II Citrate Salt (Form A), 1:1 Compound II Tris Salt (Form B), and freeform of Compound II in water and three bio-relevant media (SGF, FaSSIF and FeSSIF) for 1/4/24 hours. 3-4 mg of solids were suspended in 3 mL each medium (solid loading:
1 mg/mL, calculated using freeform) to get a suspension, followed by rolling (25 rpm) at 37° C. for 1/4/24 hours. At each time point, ˜1.0 mL of suspension was sampled out for centrifugation (12000 rpm, 2 min) and filtration through 0.45 μm PTFE membrane to obtain supernatant for HPLC and pH tests, the residual solids were analyzed by XRPD. […] The purity results were for reference only since the samples were all suspensions.

Hygroscopicity, DVS test = settings: for Hygroscopicity: according to Chinese Pharmacopeia 2015
Description: DVS was measured via a SMS (Surface Measurement Systems) DVS Intrinsic. The relative humidity at 25° C. were calibrated against deliquescence point of LiCl, Mg(NO3)2 and KCl.
To investigate the solid form stability as a function of humidity, DVS isotherm plot of 1:1 Compound I Tris Salt (Form A) was collected between 0% RH and 95% RH at 25° C. […] Considering the 1:1 Compound I Tris Salt (Form A) is a hydrate and may dehydrate under low humidity, DVS was also tested at 20 and 30° C. to further confirm the suitable storage condition and avoid dehydration. […] Combing the VH-XRPD and DVS results: the condition of 20-30° C. and relative humidity ≥40% RH is suitable for the storage of 1:1 Compound I Tris Salt (Form A).
To investigate the solid form stability as a function of humidity, DVS isotherm plots of 1:1 Compound II Citrate Salt (Form A) and 1:1 Compound II Tris Salt (Form B) were collected at 25° C. between 0% RH and 95% RH. […] The water uptake increased by 0.97% from 10% to 80% RH and a platform was observed.

[2] = Solid stability evaluation (II/II), HPLC in triplicate
Description: The chemical stability of 1:1 Compound II Citrate Salt (Form A) and 1:1 Compound II Tris Salt (Form B) was further evaluated at solid state, samples were stored under the ambient condition or 40° C./75% RH for 1 day and 3 days, respectively.

[3] = Solid stability evaluation (I/II), XRPD and HPLC
Description: To evaluate the physical and chemical stability of 1:1 Compound I Tris Salt (Form A) and amorphous free form, samples were stored under the conditions of 60° C. for 1 day and 25° C./60% RH or 40° C./75% RH for 1 week, respectively.
To evaluate the physical and chemical stability of 1:1 Compound II Citrate Salt (Form A), 1:1 Compound II Tris Salt (Form B) and freeform, samples were stored under the conditions of 60° C. for 1 day and 25° C./60% RH or 40° C./75% RH for 1 week, respectively.

Structure (SMILES): O=C(O)c1ccc2nc(CN3CC=C(c4cccc(OCc5ccc(Cl)cc5F)c4)CC3)n(C[C@@H]3CCO3)c2c1 [Tris salt Form A, (S)-2-((4-(3-((4-chloro-2-fluorobenzyl)-oxy)phenyl)-3,6-dihydropyridin-1(2H)-yl)methyl)-1-(oxetan-2-ylmethyl)-1H-benzo[d]-imidazole-6-carboxylic acid]
- Purity (%), area percentage of API ([1]; FaSSIF, 1 hour): 92.63%
- S: solubility ([1]; FaSSIF, 4 hours, 37° C.): 10 µg/mL
- S: solubility ([1]; FaSSIF, 24 hours, 37° C.): 10 µg/mL
- Purity (%), area percentage of API ([1]; FaSSIF, 24 hours): 58.70%
- Purity (%), area percentage of API ([1]; FeSSIF, 1 hour): 94.61%
- S: solubility ([1]; FeSSIF, 4 hours, 37° C.): 200 µg/mL
- Purity (%), area percentage of API ([1]; FeSSIF, 4 hours): 81.75%
- S: solubility ([1]; FeSSIF, 24 hours, 37° C.): 30 µg/mL
- Purity (%), area percentage of API ([1]; FeSSIF, 24 hours): 43.32%
- S: solubility ([1]; H2O, 1 hour, 37° C.): 100 µg/mL
- Purity (%), area percentage of API ([1]; H2O, 1 hour): 96.74%
- S: solubility ([1]; H2O, 4 hours, 37° C.): 100 µg/mL
- Purity (%), area percentage of API ([1]; H2O, 4 hours): 89.77%
- Purity (%), area percentage of API ([1]; H2O, 24 hours): 60.35%
- Solubility in H2O, comparison in words ([1]; H2O, compared with the other tested materials): better solubility
- solubility at 1 h ([1]; SGF, 37 °C, pH 1.8, simulated gastric fluid, thermodynamic from solid, SGF, 1 hour, 37° C., read-out: S: solubility): 400 µg/mL
- solubility at 4 h ([1]; SGF, 37 °C, pH 1.8, simulated gastric fluid, thermodynamic from solid, SGF, 4 hours, 37° C., read-out: S: solubility): 400 µg/mL
- solubility at 24 h ([1]; SGF, 37 °C, pH 1.8, simulated gastric fluid, thermodynamic from solid, SGF, 24 hours, 37° C., read-out: S: solubility): 500 µg/mL
- Purity (%), area percentage of API ([1]; SGF, 1 hour): 93.12%
- Purity (%), area percentage of API ([1]; SGF, 4 hours): 93.05%
- Purity (%), area percentage of API ([1]; SGF, 24 hours): 89.49%
- Form change in SGF, in words ([1]; SGF, XRPD after solubility test): Form change was observed
- FC: form change ([1]; FaSSIF, 24 hours): No
- FC: form change ([1]; SGF, 1 hour): Yes
- FC: form change ([1]; SGF, 4 hours): Yes
- FC: form change ([1]; SGF, 24 hours): Yes
- pH ([1]; FaSSIF, 4 hours): 6.6
- pH ([1]; FaSSIF, 24 hours): 6.6
- pH ([1]; FeSSIF, 1 hour): 5.1
- pH ([1]; H2O, 1 hour): 8.0
- pH ([1]; H2O, 4 hours): 8.2
- pH ([1]; H2O, 24 hours): 8.4
- pH ([1]; SGF, 1 hour): 1.9
- pH ([1]; SGF, 4 hours): 2.0
- pH ([1]; SGF, 24 hours): 1.9
- solubility at 24 h ([1]; water, 37 °C, water, thermodynamic from solid, H2O, 24 hours, 37° C., read-out: S: solubility): 50 µg/mL
- Form change after DVS test (Hygroscopicity, DVS test; 20° C.): No
- Water uptake (80% RH) (Hygroscopicity, DVS test; 20° C.): 2.24%
- Hygroscopicity (Hygroscopicity, DVS test; 20° C.): Hygroscopic
- Form change after DVS test (Hygroscopicity, DVS test; 25° C.): No
- Water uptake (80% RH) (Hygroscopicity, DVS test; 25° C.): 2.77%
- Hygroscopicity (Hygroscopicity, DVS test; 25° C.): Hygroscopic
- Form change after DVS test (Hygroscopicity, DVS test; 25° C., listed as 1:1 Compound I Tris Salt (Form A)): No form change
- Form change after DVS test (Hygroscopicity, DVS test; 30° C.): No
- Water uptake (80% RH) (Hygroscopicity, DVS test; 30° C.): 2.99%
- Hygroscopicity (Hygroscopicity, DVS test; 30° C.): Hygroscopic
- Ave. Purity (area %) ([2]; 40° C./75% RH (open), 1 day): 94.8 area %
- Ave. Purity (area %) ([2]; 40° C./75% RH (open), 3 days): 94.7 area %
- Ave. Purity (area %) ([2]; Ambient condition (open), 1 day): 94.8 area %
- Ave. Purity (area %) ([2]; Ambient condition (open), 3 days): 94.8 area %
- Ave. Purity (area %) ([2]; Initial): 94.5 area %
- Chemical stability at solid state, in words ([2]; ambient condition or 40° C./75% RH, 1 day and 3 days): better chemical stability
- Purity (area %) ([3]; 25° C./60% RH (open), 1 week): 94.70 area %
- Form change ([3]; 40° C./75% RH (open), 1 week): No
- Observation ([3]; 40° C./75% RH (open), 1 week): Yellowish
- Purity (area %) ([3]; 40° C./75% RH (open), 1 week): 95.40 area %
- Chemical stability compared with free form ([3]; 60° C. 1 day, 25° C./60% RH or 40° C./75% RH 1 week): better chemical stability
- Purity (area %) ([3]; 60° C. (capped), 1 day): 93.49 area %
- Purity (area %) ([3]; Initial): 95.46 area %

Reference: patent publication US20230203023A1, “SALT AND CRYSTAL FORMS OF GLP-1R AGONISTS AND USES THEREOF” (QILU REGOR THERAPEUTICS INC., priority 2020, published 2023)
